From publication PMC8344021, “Discovery of Small Molecule Bak Activator for Lung Cancer Therapy” (Theranostics, 2021)

Experiments:
[1] = system: A549 xenografts; assay: A549 lung cancer xenografts, tumor growth; type: in vivo, Nu/Nu nude mice
Protocol: Six-week-old female Nu/Nu nude mice were purchased from Envigo (Indianapolis, IN) and housed under pathogen-free conditions in microisolator cages. The animal propagation protocol was approved by the Emory Institutional Animal Care and Use Committee (IACUC) and the Emory Animal Ethics Committee. 3×10^6 lung cancer cells were injected into subcutaneous tissue in the flank region of nude mice. The tumors were allowed to grow to an average volume of 150~200 mm^3 prior to initiation of therapy as previously described, [29]. Patient-derived xenografts (PDXs, TKO-002 and TKO-005) were established as part of an IRB-approved phase II co-clinical trial of arsenic trioxide in patients with relapsed SCLC who had failed standard platinum-based chemotherapy. Tumor samples were obtained by image-guided biopsy and were directly implanted into Nu/Nu nude mice without intervening propagation in plastic culture plates. Direct serial propagation of growing tumor occurred for up to 5 generations. The animal propagation protocol was approved by the Emory IACUC and the Emory Animal Ethics Committee. Mice with SCLC and NSCLC xenografts or PDXs were treated with BKA-073 intraperitoneally (i.p.) or venetoclax orally as indicated. During treatment, tumor volume (V) was measured by caliper measurements once every two days as described previously. Mice were euthanized by CO2 inhalation at the end of treatment. Harvested tumor tissues were used for further analysis.
To assess whether BKA-073 induced suppression of tumor growth occurs through activation of Bak and apoptosis in vivo, representative samples from harvested tumor tissues were analyzed by cross-linking with BMH for Bak oligomerization or by immunohistochemistry (IHC) for active caspase 3 as described, [29], [47]. […] There were no decreases in white cells (WBC), red blood cells (RBC) and platelets (PLT) in blood.

[2] = system: LSL-KRAS G12D LKB1 fl/fl (KL) mice lung tumors; assay: Mutant KRAS-driven lung cancer GEMM (KL mice); type: in vivo, mouse; conditions: 15 mg/kg/d i.p.
Protocol: LSL-KRAS^G12D LKB1^fl/fl (KL) were generated as previously described [30]-[33]. All studies were performed on protocols approved by the Emory University IACUC. Six weeks after cre-adenovirus infection, KL mice were treated with BKA-073 intraperitoneally (i.p) for 48 days. Mice were euthanized with CO2 asphyxiation. After lung perfusion with PBS, the left lung lobes were harvested from mice in control and BKA-073 treated groups and immediately fixed in 10% neutral buffered formalin (Fisher Scientific, Kalamazoo, MI), horizontally cut into three equal parts and embedded in paraffin blocks. Three parts of lung tissues representing different regions of the lung were vertically put into paraffin blocks for hematoxylin-eosin (H&E) staining. Lung tissue samples were sectioned at 3 µm three times for placement of slides and stained with H&E. H&E stained samples were scanned using Nano Zoomer 2.0-HT (Hamamatsu, Japan) and images were analyzed using ImageScope viewing software (Leica Biosystems, Buffalo Grove, IL). Tumor numbers were counted under a microscope and tumor area was quantified using Openlab modular imaging software (PerkinElmer, Waltham, MA) as previously described, [32].
KRAS is the most commonly mutated oncogene, yet no effective targeted therapies exist for KRAS-mutant cancers. […] Since BKA-073 is able to induce apoptosis by activation of Bak via facilitating its oligomerization in vitro and in vivo (Figures 1, 2 and 4), we were interested in testing whether BKA-073 is effective for the treatment of mutant KRAS-driven cancer. To assess the potency of BKA-073 in KRAS mutant-driven lung cancer, lox-stop-lox (LSL)-KRAS^G12D LKB1^fl/fl (i.e. KL) mice were generated and bred out as previously described, [31], [50], [51]. These mice contain a KRAS^G12D LSL knock-in allele and a floxed allele of LKB1 (LKB1^fl/fl), [31]. Primary lung adenocarcinoma was detectable as early as 6 weeks after intranasal administration of 5×10^6 pfu adenovirus expressing Cre recombinase (AdeCre) in KRAS^G12D LKB1^fl/fl (KL) mice. […] After treatment for 48 days, KL mice were euthanized with CO2 asphyxiation. Lungs with tumor and normal lung tissues were collected for further analysis. To quantify tumor burden and tumor multiplicity in mice, H&E-stained lungs were imaged with morphometric software to quantify the surface area composed of tumor as opposed to normal tissue of representative cross-sections of each lung lobe for each mouse as previously described [31]-[33]. […] There were 4 deaths out of 6 mice in the control group versus 2 death out of 6 mice in the BKA-073 treatment group […], calculated up to 48 days before euthanization.

[3] = system: A549-P, A549-IRR, H358-P, H358-IRR, H460-P and H460-IRR cells; assay: Colony formation assay in parental and radioresistant cells; type: cell-based, human; conditions: 0.5 µM
Protocol: To further investigate whether Bak contributes to radioresistance, we established three lung cancer cell lines with ionizing radiation resistance (i.e. A549-IRR, H358-IRR and H460-IRR) as described, [52], [53]. […] A549-P, […] and H460-P cells remained sensitive to IR, but A549-IRR, H358-IRR and H460-IRR became insensitive to IR. […] To further test this in vivo, NSCLC xenografts derived from A549-P and A549-IRR cell lines were treated with IR (2Gy/exposure, every other day for total of 5 times) or BKA-073 (15 mg/kg/d) for 4 weeks. We observed that lung cancer xenografts derived from A549-IRR cells were resistant to IR treatment whereas xenografts derived from A549-P were sensitive to IR treatment (Figure S7C).
Figure S7. BKA-073 overcomes radioresistance of lung cancer in vitro and in vivo. (A) Expression levels of Bak in A549-P versus A549-IRR cells, H358-P versus H358 -IRR cells or H460-P versus H460-IRR cells were analyzed by Western blot. (B) A549-P, A549-IRR, H358-P, H358-IRR, H460-P and H460-IRR cells were treated with IR (5Gy), BKA -073 (0.5 µM), followed by colony formation assay. Data represent the mean ± SD, n = 3 per group. ***P < 0.001, ns: not significant, by 2-tailed t test. […]
Tumor volume was measured once every 2 days. After treatment, mice were sacrificed and tumors were removed and analyzed. […]

Which results are given for COc1ccc2nc3ccccc3c(NCCNCC(C)O)c2c1 (centres unmarked) [BKA-073]?
apoptosis (active caspase 3, IHC) in tumor tissues ([1]; 5, 10, 15mg/kg/d i.p., 28 days): Dose-dependent; tumor growth ([1]; 5, 10, 15mg/kg/d i.p., 28 days): potently suppressed lung cancer growth in a dose-dependent fashion; Bak oligomerization in tumor tissues ([1]; 5, 10, 15mg/kg/d i.p., 28 days, BMH cross-linking): Dose-dependent; tumor growth ([1]; A549-P xenografts, 15 mg/kg/d, 4 weeks): repressed xenografts; tumor growth ([1]; parental A549 xenografts, 12.5mg/kg/d i.p., 28 days): potently inhibited growth; tumor burden in the lung ([2]; 48 days): significant reduction; tumor multiplicity in the lung ([2]; 48 days): significant reduction; deaths out of 6 mice ([2]; up to 48 days, control 4 of 6, p < 0.01): 2; survival ([2]; vs control group): significantly prolonged survival; sensitivity (colony formation) ([3]; parental cell lines (A549-P, H358-P, H460-P)): sensitive; sensitivity (colony formation) ([3]; radioresistant cell lines (A549-IRR, H358-IRR, H460-IRR)): sensitive
